# Values quoted from earlier work in US20190077874A1, “METHODS AND COMPOSITIONS FOR THE TREATMENT OF TUBEROUS SCLEROSIS” (National Tuberous Sclerosis Association, Inc., priority 2017, published 2019).
# Columns and labels:
# [1] = test system: refractory partial-onset seizures; details: patients with refractory partial-onset seizures
# [2] = test system: TSC patients; details: previous antiepileptic drugs
# [3] = test system: infantile spasms in the setting of TSC
# [4] = test system: TSC patients with medically refractory epilepsy and SEGAs; details: case studies of TSC patients
# [5] = most commonly hypertension, immune suppression and infection, electrolyte imbalance etc.
# [6] = test system: IL-1β; details: TSC mouse model
# [7] = test system: CXCL10; details: TSC mouse model
# [8] = test system: TSC mouse model; details: Zhang et al.
compound,measurement,setting,value
"C=CC(N)CCC(=O)O (stereo not drawn) [VGB, vigabatrin]",patients in whom treatment is ineffectual,[1],more than 75%
same,patients in whom the antiepileptic drug failed,[2],66%
same,efficacy in treating infantile spasms,[3],particularly effective
CO[C@H]1C[C@@H]2CC[C@@H](C)[C@@](O)(O2)C(=O)C(=O)N2CCCC[C@H]2C(=O)O[C@H]([C@H](C)C[C@@H]2CC[C@@H](OCCO)[C@H](OC)C2)CC(=O)[C@H](C)/C=C(\C)[C@@H](O)[C@@H](OC)C(=O)[C@H](C)C[C@H](C)/C=C/C=C/C=C/1C [everolimus],SEGA size,[4],dramatic reduction
same,seizure frequency,[4],dramatic reduction
CC[C@@H](C(N)=O)N1CCCC1=O [levetiracetam],patients in whom the antiepileptic drug failed,[2],67%
CC1(C)O[C@@H]2[C@@H](CO[C@@]3(COS(N)(=O)=O)OC(C)(C)O[C@@H]23)O1 [topiramate],patients in whom the antiepileptic drug failed,[2],58%
"adrenocorticotropic hormone (SYSMEHFRWGKPVGKKRRPVKVYPNGAEDESAEAFPLEF; Corticotropin; UniProt P01189 138-176, looked up) [ACTH, mainstay therapy for the treatment of seizures in TSC patients]",treated patients with adverse effects,[5],up to 85%
epicatechin-3-gallate,increased production of IL-1β,[6],reverse the increased production
same,increased production of CXCL10,[7],reverse the increased production
same,seizures,[8],reduced seizures
same,survival,[8],improved survival
